Patent US10376468B2, “Block copolymers and self-assembling nanoparticles formed therefrom” (International Business Machines Corporation, priority 2017, dated 2019)

System: nude BALB/c mice bearing subcutaneous PC-3 tumors
Test: Biodistribution of DiR-loaded mixed micelles, whole body live imaging
Format: in vivo
Conditions: tail-vein injection
Source text: To test the biodistribution of the micelles of the invention, DiR, a near-infrared fluorophore, was encapsulated in MM5D micelles and administered through tail-vein intravenous injection to nude BALB/c mice bearing subcutaneous PC-3 tumors. The in vivo real-time biodistribution of the fluorophore was studied by whole body live imaging at various time points over seven days. An equivalent amount of free DiR was similarly administered to a control group of mice.
The loading of DiR in MM5D micelles was carried out according to the DOX-loading protocol described above. Briefly, polymer (10 mg) and DiR (0.3 mg) were dissolved in DMSO (2 mL) and the mixture pipetted drop-by-drop into 10 mL of deionized water, with sonification for 10 minutes. The solution was dialyzed against deionized water for 48 hours, with the water changed at 3-, 6-, and 24-hours.
PC-3 cells (5 □ 106) suspended in Matrigel (1:1 ratio) were injected subcutaneously (200 μL) into the right flank of male BALB/c mice. Five weeks post-injection, when the tumor reached 5-7 mm in diameter, mice were treated with 8 mg/kg DiR-loaded mixed micelles via tail-vein injection or an equivalent amount of free DiR.
Whole-body fluorescence images were taken using Xenogen IVIS 100 with an ICG filter (excitation 710-760 nm, emission at 810-875 nm) at time points ranging from 30 minutes to 7-days post-administration. Anesthetized animals (n=3 for micelle formulation and n=2 for free DiR) were placed ion one lateral position on a heated plate (37° C.) for image acquisition with an exposure time set to 2 seconds. Tumors and organs were removed from sacrificed mice after 7-days post-administration and then imaged.

[1] = organs removed 7-days post-administration

Compound: CCCCCCCCCCCCCCCCCCN1/C(=C/C=C/C=C/C=C/C2=[N+](CCCCCCCCCCCCCCCCCC)c3ccccc3C2(C)C)C(C)(C)c2ccccc21.[I-] [free DiR]
- DiR signal in the subcutaneous tumor at 48-hours post-injection (8 mg/kg or equivalent free DiR): Little or no signal
- Distribution of DiR fluorescence signal at 24-hours (8 mg/kg or equivalent free DiR): concentrated strongly in the liver
- DiR signal in the tumor (FIG. 9, tumors and organs) [1]: little or no signal in the tumor
- Tissues with strongest DiR signal (FIG. 9, tumors and organs) [1]: strongest signal in the lungs, liver, and spleen
